Assay results from patent US20110224135A1 (priority 2008, published 2011).

Legend:
[1] = rat, in vivo
[2] = target: T1, mouse Kv1.7 channel (mouse), Q17ST2; assay: cell-based or functional assay
T1 chain: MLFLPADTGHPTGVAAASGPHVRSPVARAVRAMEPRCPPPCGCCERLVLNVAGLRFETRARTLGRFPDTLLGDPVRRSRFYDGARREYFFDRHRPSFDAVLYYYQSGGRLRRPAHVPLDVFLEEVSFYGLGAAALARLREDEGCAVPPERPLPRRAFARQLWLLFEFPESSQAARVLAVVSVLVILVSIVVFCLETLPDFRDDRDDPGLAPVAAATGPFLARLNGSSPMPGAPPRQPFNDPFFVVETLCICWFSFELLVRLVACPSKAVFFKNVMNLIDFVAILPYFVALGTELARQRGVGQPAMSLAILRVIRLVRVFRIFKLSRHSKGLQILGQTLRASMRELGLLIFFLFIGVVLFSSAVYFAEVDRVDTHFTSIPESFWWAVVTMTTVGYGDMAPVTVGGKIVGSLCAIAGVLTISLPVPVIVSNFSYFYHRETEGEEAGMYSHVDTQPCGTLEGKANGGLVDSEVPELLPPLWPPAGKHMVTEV

[3] = target: T2, human Kv1.7 channel (human), Q96RP8; assay: cell-based or functional assay
T2 chain: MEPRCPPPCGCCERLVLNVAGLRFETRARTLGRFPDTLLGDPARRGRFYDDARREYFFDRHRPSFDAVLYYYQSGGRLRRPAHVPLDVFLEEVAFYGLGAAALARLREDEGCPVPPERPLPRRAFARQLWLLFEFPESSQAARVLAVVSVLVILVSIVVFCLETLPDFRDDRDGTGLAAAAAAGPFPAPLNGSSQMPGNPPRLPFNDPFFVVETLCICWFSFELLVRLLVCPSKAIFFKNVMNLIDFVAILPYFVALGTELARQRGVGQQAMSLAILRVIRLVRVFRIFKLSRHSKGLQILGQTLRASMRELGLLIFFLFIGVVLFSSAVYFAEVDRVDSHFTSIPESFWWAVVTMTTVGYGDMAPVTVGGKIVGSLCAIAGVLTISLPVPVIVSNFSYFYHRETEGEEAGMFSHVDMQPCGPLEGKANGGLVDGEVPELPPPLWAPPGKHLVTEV

Q: With `COc1ccc(Cl)cc1C(=O)NCCc1ccc(S(=O)(=O)NC(=O)NC2CCCCC2)cc1` [glibenclamide] as the molecule, how does the “AUC calculated from the glucose profiles” value [1] read?
A: 79 ± 7 g·min/L

Q: What about the “AUC of the insulin profiles” value [1] of the same molecule?
A: 310 ± 35 ng·min/mL

Q: And the “Glucose-induced blood glucose increase” value [1]?
A: reduction of the glucose-induced glucose increase

B1: Conkunitzin-S1 (peptide)
chain: KDRPSLCDLPADSGSGTKAEKRIYYNSARKQCLRFDYTGQGGNENNFRRTYDCQRTCLYT
modifications: not checked
Q: What does the source list for B1?
A: IC50 of block of channel currents (two electrode voltage clamp, Xenopus oocytes) [2]: 122 nM; IC50 of block of channel currents (HEK-293 cells) [3]: 445 nM
